Test results: article PMC7413254 (Nature Communications, 2020)
Where two headings read alike, the source gives them in different places.

Experiments:
PfCRT^3D7 [1] = target: T1, PfCRT^3D7 (Plasmodium falciparum, UniProt Q8IBZ9); assay: cell-based; type: cell-based; details: total [3H]CQ transport; for inhibition at 2000 µM: [test solute] = 2 mM
Outline: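 Radioactivity accumulated per oocyte, read by liquid scintillation after 10% SDS lysis, served as the uptake measure. Incubations ran 1.5 h at 27.5 °C in ND96 at pH 5.5, matching digestive-vacuole acidity.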

non-expressing oocytes = type: cell-based, Xenopus laevis; details: total [3H]CQ transport; for Uptake of [3H]CQ (% non-expressing oocyte control), trans-stimulation: non-expressing oocytes, normalised to the oocyte type control; for Uptake of [3H]CQ (% PfCRTDd2 control), trans-stimulation, non-expressing oocytes: mean ± SEM, SEM
Outline: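 Oocytes (ten per treatment, ≥4 independent frogs/days) were preloaded by injecting VF-6 in 25 nL ND96 at pH 5.0, 5.5, 6.0 or 7.0, or Na^+-free choline buffer, then uptake run 1.5 h, 27.5 °C, ND96 pH 5.5 by default. Internal concentrations assumed ~400 nL oocyte volume.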

PfCRT^Ecu1110 = PfCRT^Ecu1110 (Plasmodium falciparum, UniProt Q9N623, A220S/I356L/K76T/N326D); assay: cell-based; type: cell-based; details: […]
PfCRT^Ecu1110, sequence (Q9N623 whole entry A220S/I356L/K76T/N326D): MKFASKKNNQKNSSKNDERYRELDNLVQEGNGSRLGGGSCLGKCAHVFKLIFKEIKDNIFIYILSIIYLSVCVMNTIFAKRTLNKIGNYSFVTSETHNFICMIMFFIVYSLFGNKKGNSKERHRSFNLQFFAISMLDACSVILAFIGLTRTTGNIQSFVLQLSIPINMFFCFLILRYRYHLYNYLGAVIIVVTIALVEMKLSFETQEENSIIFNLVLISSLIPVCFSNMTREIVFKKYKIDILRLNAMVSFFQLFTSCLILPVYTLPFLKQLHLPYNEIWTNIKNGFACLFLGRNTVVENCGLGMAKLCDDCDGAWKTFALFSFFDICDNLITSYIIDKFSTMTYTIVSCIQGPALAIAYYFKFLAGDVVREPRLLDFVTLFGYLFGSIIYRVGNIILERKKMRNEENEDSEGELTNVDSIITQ
Outline: (§1)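 Transport measured in Xenopus oocytes expressing the transporters, 1.5 h at 27.5 °C in ND96 pH 5.5 unless noted. For trans-stimulation, VF-6 injected in 25 nL ND96 at pH 5.0–7.0 or Na^+-free (choline) buffer; intracellular levels based on ~400 nL oocyte volume. Ten oocytes per treatment, ≥4 experiments.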

PfCRT^3D7 [2] = target: T1, PfCRT^3D7; assay: cell-based; type: cell-based
Outline: as §1

PfCRT^Dd2 = PfCRT^Dd2 (Plasmodium falciparum, UniProt Q9N623, A220S/I356T/K76T/M74I/N326S/N75E/Q271E/R371I); assay: cell-based; type: cell-based; details: […]; for activity at 45000 µM: [test solute]i = 45 mM (30 mM for some solutes due to solubility)
PfCRT^Dd2, sequence (Q9N623 whole entry A220S/I356T/K76T/M74I/N326S/N75E/Q271E/R371I): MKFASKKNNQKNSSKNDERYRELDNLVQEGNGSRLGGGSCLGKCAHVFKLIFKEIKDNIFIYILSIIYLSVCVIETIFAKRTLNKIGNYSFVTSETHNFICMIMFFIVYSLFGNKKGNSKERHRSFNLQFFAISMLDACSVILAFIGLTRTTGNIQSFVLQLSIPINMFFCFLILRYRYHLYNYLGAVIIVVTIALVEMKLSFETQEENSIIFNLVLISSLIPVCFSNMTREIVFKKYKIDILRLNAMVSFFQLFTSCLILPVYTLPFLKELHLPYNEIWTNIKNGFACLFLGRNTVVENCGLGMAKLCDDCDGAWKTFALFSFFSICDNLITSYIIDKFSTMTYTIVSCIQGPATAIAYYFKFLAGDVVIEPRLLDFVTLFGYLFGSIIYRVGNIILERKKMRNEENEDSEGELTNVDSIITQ
Outline: as §1

PfNT1 = target: T2, PfNT1 (Plasmodium falciparum, UniProt Q8IDM6); assay: cell-based; type: cell-based; details: for activity at 5000 µM: total [3H]CQ transport
T2 construct: expressed in transfected cells; host or cells: Xenopus laevis oocytes (stage V-VI), cRNA-injected
T2 sequence (Q8IDM6 whole entry): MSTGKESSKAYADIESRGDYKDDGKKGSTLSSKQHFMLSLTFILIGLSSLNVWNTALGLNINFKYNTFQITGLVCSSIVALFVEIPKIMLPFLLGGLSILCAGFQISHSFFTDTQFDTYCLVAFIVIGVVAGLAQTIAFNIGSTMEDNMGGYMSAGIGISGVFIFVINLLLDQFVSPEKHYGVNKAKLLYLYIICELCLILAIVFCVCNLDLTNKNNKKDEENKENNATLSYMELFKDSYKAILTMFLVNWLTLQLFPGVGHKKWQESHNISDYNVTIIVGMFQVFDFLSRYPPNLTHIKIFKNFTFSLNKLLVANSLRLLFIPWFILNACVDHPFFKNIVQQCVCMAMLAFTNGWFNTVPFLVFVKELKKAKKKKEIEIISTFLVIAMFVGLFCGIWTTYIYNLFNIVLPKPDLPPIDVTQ
Outline: as §1

PfCRT = assay: Potential co-substrates tested for influx of VF-6 via PfCRT into the oocyte; type: cell-based, Plasmodium falciparum; set-up: key: X: Compounds that have been tested as potential co-substrates but are not required for influx of VF-6 via PfCRT into the oocyte

T1 sequence (Q8IBZ9 59-398): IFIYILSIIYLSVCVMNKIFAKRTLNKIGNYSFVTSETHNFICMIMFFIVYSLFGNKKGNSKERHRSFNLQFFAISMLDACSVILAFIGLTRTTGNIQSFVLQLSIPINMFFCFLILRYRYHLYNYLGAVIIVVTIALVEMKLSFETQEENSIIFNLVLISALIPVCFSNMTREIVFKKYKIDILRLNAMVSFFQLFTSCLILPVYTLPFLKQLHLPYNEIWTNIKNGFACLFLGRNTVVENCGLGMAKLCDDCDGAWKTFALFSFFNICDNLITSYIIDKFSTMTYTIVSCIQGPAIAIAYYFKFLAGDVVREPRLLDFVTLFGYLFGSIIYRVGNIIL

N=C(N)NCCC[C@H](N)C(=O)O [L-arginine]
inhibition at 2000 µM (PfCRT^3D7 [1]; PfCRT3D7 oocytes, normalised to the oocyte type control, read-out: Uptake of [3H]CQ (% PfCRT3D7 control), cis-inhibition): 100 ± 5.3%
inhibition at 500 µM (PfCRT^3D7 [1]; [test solute] = 0.5 mM, mean ± SEM, SEM, read-out: Uptake of [3H]CQ (% PfCRTDd2 control), cis-inhibition, PfCRT3D7): 2.4 ± 0.07%
inhibition at 1000 µM (PfCRT^3D7 [1]; [test solute] = 1 mM, mean ± SEM, SEM, read-out: Uptake of [3H]CQ (% PfCRTDd2 control), cis-inhibition, PfCRT3D7): 2.9 ± 0.05%
inhibition at 2000 µM (PfCRT^3D7 [1]; mean ± SEM, SEM, read-out: Uptake of [3H]CQ (% PfCRTDd2 control), cis-inhibition, PfCRT3D7): 3.3 ± 0.03%
Uptake of [3H]CQ (% non-expressing oocyte control), trans-stimulation (non-expressing oocytes; [test solute]i = 5 mM): 97 ± 4.1 % non-expressing oocyte control
Uptake of [3H]CQ (% non-expressing oocyte control), trans-stimulation (non-expressing oocytes; [test solute]i = 45 mM (30 mM for some solutes due to solubility)): 98 ± 3.9 % non-expressing oocyte control
Uptake of [3H]CQ (% PfCRTDd2 control), trans-stimulation, non-expressing oocytes (non-expressing oocytes; [test solute]i = 5 mM (intracellular)): 2.7 ± 0.07 % PfCRTDd2 control
Uptake of [3H]CQ (% PfCRTDd2 control), trans-stimulation, non-expressing oocytes (non-expressing oocytes; [test solute]i = 45 mM (intracellular; 30 mM for some solutes due to solubility)): 3.0 ± 0.01 % PfCRTDd2 control
activity at 5000 µM (PfCRT^Ecu1110; pH 5.5, read-out: PfCRT-mediated [3H]CQ transport, trans-stimulation (% PfCRTEcu1110 control), [test solute]i = 5 mM (intracellular), PfCRTEcu1110 oocytes, normalised to oocyte type control): 98 ± 4.1%
activity at 5000 µM (PfCRT^Ecu1110; pH 5.5, read-out: Uptake of [3H]CQ (% PfCRTEcu1110 control), trans-stimulation, PfCRTEcu1110 oocytes, [test solute]i = 5 mM, total [3H]CQ transport, normalised to the oocyte type control): 100 ± 3.7%
activity at 45000 µM (PfCRT^Ecu1110; pH 5.5, read-out: Uptake of [3H]CQ (% PfCRTEcu1110 control), trans-stimulation, PfCRTEcu1110 oocytes, [test solute]i = 45 mM (30 mM for some solutes due to solubility), total [3H]CQ transport, normalised to the oocyte type control): 99 ± 2.5%
activity at 5000 µM (PfCRT^Ecu1110; read-out: Uptake of [3H]CQ (% PfCRTDd2 control), trans-stimulation, PfCRTEcu1110, total [3H]CQ transport, [test solute]i = 5 mM (intracellular), mean ± SEM, SEM): 36 ± 2.1%
activity at 45000 µM (PfCRT^Ecu1110; read-out: Uptake of [3H]CQ (% PfCRTDd2 control), trans-stimulation, PfCRTEcu1110, total [3H]CQ transport, [test solute]i = 45 mM (intracellular; 30 mM for some solutes due to solubility), mean ± SEM, SEM): 35 ± 2.2%
activity at 5000 µM (PfCRT^3D7 [2]; PfCRT3D7 oocytes, [test solute]i = 5 mM, total [3H]CQ transport, normalised to the oocyte type control, read-out: Uptake of [3H]CQ (% PfCRT3D7 control), trans-stimulation): 97 ± 2.2%
[3H]CQ transport (% PfCRT3D7 control), trans-stimulation, PfCRT3D7 (PfCRT^3D7 [2]; SEM): 0.3 ± 0.02 % PfCRT3D7 control
activity at 5000 µM (PfCRT^3D7 [2]; [test solute]i = 5 mM (intracellular), PfCRT3D7 oocytes, normalised to oocyte type control, read-out: PfCRT-mediated [3H]CQ transport, trans-stimulation (% PfCRT3D7 control)): 96 ± 3.7%
activity at 45000 µM (PfCRT^3D7 [2]; SEM, read-out: Uptake of [3H]CQ (% PfCRTDd2 control), trans-stimulation, PfCRT3D7): 3.3 ± 0.02%
activity at 45000 µM (PfCRT^3D7 [2]; read-out: PfCRT-mediated [3H]CQ transport, trans-stimulation (% PfCRT3D7 control)): 96 ± 3.1%
activity at 45000 µM (PfCRT^3D7 [2]; read-out: Uptake of [3H]CQ (% PfCRT3D7 control), trans-stimulation): 98 ± 4.4%
activity at 5000 µM (PfCRT^3D7 [2]; total [3H]CQ transport, [test solute]i = 5 mM (intracellular), mean ± SEM, SEM, read-out: Uptake of [3H]CQ (% PfCRTDd2 control), trans-stimulation, PfCRT3D7): 3.3 ± 0.06%
activity at 5000 µM (PfCRT^Dd2; pH 5.5, read-out: PfCRT-mediated [3H]CQ transport, trans-stimulation (% PfCRTDd2 control), [test solute]i = 5 mM (intracellular), PfCRTDd2 oocytes, normalised to oocyte type control): 98 ± 2.1%
activity at 5000 µM (PfCRT^Dd2; pH 5.5, read-out: Uptake of [3H]CQ (% PfCRTDd2 control), trans-stimulation, PfCRTDd2, total [3H]CQ transport, [test solute]i = 5 mM (intracellular), mean ± SEM, SEM): 100 ± 3.5%
activity at 5000 µM (PfCRT^Dd2; pH 5.5, read-out: Uptake of [3H]CQ (% PfCRTDd2 control), trans-stimulation, PfCRTDd2 oocytes, [test solute]i = 5 mM, total [3H]CQ transport, normalised to the oocyte type control): 100 ± 3.5%
activity at 45000 µM (PfCRT^Dd2; pH 5.5, read-out: Uptake of [3H]CQ (% PfCRTDd2 control), trans-stimulation, PfCRTDd2 oocytes, total [3H]CQ transport, normalised to the oocyte type control): 97 ± 4.2%
activity at 5000 µM (PfCRT^Dd2; pH 5.5, read-out: [3H]CQ transport (% PfCRTDd2 control), trans-stimulation, PfCRTDd2, trans-stimulation, [test solute]i = 5 mM (injected), PfCRT-mediated component (background subtracted), mean ± SEM, SEM): 98 ± 2.1%
activity at 45000 µM (PfCRT^Dd2; pH 5.5, read-out: [3H]CQ transport (% PfCRTDd2 control), trans-stimulation, PfCRTDd2, trans-stimulation, PfCRT-mediated component (background subtracted), mean ± SEM, SEM): 95 ± 2.5%
activity at 5000 µM (PfNT1; PfNT1 oocytes, [test solute]i = 5 mM, normalised to the oocyte type control, read-out: Uptake of [3H]CQ (% PfNT1 control), trans-stimulation): 98 ± 3.8%
activity at 45000 µM (PfNT1; SEM, read-out: Uptake of [3H]CQ (% PfCRTDd2 control), trans-stimulation, PfNT1): 3.1 ± 0.07%
activity at 45000 µM (PfNT1; read-out: Uptake of [3H]CQ (% PfNT1 control), trans-stimulation): 98 ± 3.2%
activity at 5000 µM (PfNT1; [test solute]i = 5 mM (intracellular), mean ± SEM, SEM, read-out: Uptake of [3H]CQ (% PfCRTDd2 control), trans-stimulation, PfNT1): 3.3 ± 0.03%
Tested as potential co-substrate but not required for influx of VF-6 via PfCRT into the oocyte (PfCRT): X
